Test results as given in patent publication US20240109917A1 (ACTELION PHARMACEUTICALS LTD, priority 2020, published 2024).
Where two headings read alike, the source gives them in different places.

Tests used:
PDGFRβ = PDGFRβ (Rattus norvegicus (Rat), UniProt Q05030); test: PDGFRβ Cellular Assay (PDGFRb P-Y751 HTRF in A10 cells stimulated with PDGF-BB); format: cell-based
Summary of the method: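 Rat A10 cells, plated overnight, were treated with compound for 3 hours, then stimulated with PDGF-BB (working stock 100 ng/mL in 10% FBS medium). After lysis, PDGFRβ P-Y751 was detected by HTRF.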

VEGFR2, unphosphorylated = VEGFR2, unphosphorylated (Homo sapiens (Human), UniProt P35968); test: VEGFR ADP GLO Assay; format: biochemical
Sequence of VEGFR2, unphosphorylated (P35968 20-1356): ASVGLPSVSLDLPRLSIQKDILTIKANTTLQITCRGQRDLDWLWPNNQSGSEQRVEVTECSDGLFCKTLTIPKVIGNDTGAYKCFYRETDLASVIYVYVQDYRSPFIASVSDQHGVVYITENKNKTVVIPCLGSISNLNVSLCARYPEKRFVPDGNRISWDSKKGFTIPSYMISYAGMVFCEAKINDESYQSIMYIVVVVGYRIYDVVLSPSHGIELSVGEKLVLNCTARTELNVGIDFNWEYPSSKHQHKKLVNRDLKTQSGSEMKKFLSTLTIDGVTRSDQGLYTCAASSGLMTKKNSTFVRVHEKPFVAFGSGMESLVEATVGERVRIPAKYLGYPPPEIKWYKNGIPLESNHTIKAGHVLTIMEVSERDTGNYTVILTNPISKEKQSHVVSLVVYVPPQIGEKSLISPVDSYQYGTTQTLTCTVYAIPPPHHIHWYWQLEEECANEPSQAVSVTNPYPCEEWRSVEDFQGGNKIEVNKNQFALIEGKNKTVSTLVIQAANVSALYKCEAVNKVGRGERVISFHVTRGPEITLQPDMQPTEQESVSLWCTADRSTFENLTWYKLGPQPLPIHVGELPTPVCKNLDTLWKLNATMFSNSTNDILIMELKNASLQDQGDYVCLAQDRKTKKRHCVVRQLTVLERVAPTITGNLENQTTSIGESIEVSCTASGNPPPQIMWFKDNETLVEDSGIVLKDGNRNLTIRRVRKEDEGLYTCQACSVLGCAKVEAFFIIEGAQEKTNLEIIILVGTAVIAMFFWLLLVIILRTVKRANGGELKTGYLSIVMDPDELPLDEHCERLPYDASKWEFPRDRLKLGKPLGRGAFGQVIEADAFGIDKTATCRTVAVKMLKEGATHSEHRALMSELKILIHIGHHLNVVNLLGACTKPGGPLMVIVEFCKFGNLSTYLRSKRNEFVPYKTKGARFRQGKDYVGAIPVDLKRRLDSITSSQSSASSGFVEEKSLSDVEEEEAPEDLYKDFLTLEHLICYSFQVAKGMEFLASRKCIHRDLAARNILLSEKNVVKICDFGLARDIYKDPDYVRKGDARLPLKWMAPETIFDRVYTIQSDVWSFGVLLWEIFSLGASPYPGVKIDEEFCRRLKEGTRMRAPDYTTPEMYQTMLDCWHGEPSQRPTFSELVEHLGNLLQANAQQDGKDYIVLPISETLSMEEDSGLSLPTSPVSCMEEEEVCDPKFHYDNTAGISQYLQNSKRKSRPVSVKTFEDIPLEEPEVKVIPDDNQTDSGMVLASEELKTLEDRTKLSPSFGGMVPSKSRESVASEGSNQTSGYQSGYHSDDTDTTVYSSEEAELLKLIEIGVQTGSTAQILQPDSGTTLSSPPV

Sequence of PDGFRβ (Q05030 32-1097): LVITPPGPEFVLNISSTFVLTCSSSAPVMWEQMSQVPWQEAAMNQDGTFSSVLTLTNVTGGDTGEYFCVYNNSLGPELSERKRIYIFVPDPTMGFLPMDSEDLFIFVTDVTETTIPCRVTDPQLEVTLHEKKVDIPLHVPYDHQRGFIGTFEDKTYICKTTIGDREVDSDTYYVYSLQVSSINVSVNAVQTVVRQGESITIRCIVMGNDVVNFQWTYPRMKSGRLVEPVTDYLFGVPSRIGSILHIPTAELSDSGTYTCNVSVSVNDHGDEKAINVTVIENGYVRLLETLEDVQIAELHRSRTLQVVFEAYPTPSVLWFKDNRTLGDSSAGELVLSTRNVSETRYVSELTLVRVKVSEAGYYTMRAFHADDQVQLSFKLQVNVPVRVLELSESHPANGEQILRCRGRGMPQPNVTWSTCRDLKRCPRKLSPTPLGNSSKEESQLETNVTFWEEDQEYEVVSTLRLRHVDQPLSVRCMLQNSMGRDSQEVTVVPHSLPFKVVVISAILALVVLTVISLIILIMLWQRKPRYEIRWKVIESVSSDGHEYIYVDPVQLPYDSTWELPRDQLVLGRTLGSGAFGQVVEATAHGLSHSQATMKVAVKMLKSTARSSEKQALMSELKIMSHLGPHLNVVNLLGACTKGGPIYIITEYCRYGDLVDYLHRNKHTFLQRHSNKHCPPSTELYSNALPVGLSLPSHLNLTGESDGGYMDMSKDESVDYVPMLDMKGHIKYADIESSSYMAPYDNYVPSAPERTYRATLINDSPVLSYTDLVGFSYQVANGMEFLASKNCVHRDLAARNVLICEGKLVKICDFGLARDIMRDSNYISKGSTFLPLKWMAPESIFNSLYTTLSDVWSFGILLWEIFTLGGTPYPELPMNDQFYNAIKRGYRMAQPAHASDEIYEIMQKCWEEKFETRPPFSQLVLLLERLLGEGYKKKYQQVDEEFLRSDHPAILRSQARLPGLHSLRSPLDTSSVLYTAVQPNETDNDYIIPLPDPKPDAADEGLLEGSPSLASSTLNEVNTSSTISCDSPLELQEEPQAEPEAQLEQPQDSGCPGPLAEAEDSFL

Row | SMILES | IC50 (PDGFRβ; read-out: PDGFR Cellular IC50) [nM] | IC50 (VEGFR2, unphosphorylated) [µM] | IC50 (PDGFRβ; PDGFR Cellular IC50) [nM]
1 | Cc1ncc(NC(=O)CN2CCc3c(cnn3C)C2)cc1NC(=O)c1cnn2cc(-c3cnn(C)c3)sc12 [Example 57, 2-(1-methyl-1H-pyrazol-4-yl)-N-(2-methyl-5-(2-(1-methyl-6,7-dihydro-1H-pyrazolo[4,3-c]pyridin-5 (4H)-yl)acetamido)pyridin-3-yl)pyrazolo[5,1-b]thiazole-7-carboxamide] | 124 | > 7.5 | –
2 | COCCn1cc(-c2cn3ncc(C(=O)Nc4cc(NC(=O)CCN5CCC6(CCC6)C5)cnc4C)c3s2)cn1 [Example 90, N-(5-(3-(6-azaspiro[3.4]octan-6-yl)propanamido)-2-methylpyridin-3-yl)-2-(1-(2-methoxyethyl)-1H-pyrazol-4-yl)pyrazolo[5,1-b]thiazole-7-carboxamide] | 19.9 | > 2.5 | –
3 | Cc1ncc(NC(=O)CN2Cc3ncsc3C2)cc1NC(=O)c1cnn2cc(-c3cnn(C)c3)sc12 [Example 76, N-(5-(2-(4H-pyrrolo[3,4-d]thiazol-5 (6H)-yl)acetamido)-2-methylpyridin-3-yl)-2-(1-methyl-1H-pyrazol-4-yl)pyrazolo[5,1-b]thiazole-7-carboxamide] | 36.9 | > 7.5 | –
4 | Cc1ncc(NC(=O)CN2CCC3(CCO3)CC2)cc1NC(=O)c1cnn2cc(-c3cnn(C)c3)sc12 [Example 81, N-(5-(2-(1-oxa-7-azaspiro[3.5]nonan-7-yl)acetamido)-2-methylpyridin-3-yl)-2-(1-methyl-1H-pyrazol-4-yl)pyrazolo[5,1-b]thiazole-7-carboxamide] | 79.8 | > 7.5 | –
5 | Cc1ncc(NC(=O)CN2CCc3cccnc3C2)cc1NC(=O)c1cnn2cc(-c3cnn(C)c3)sc12 [Example 60, N-(5-(2-(5,6-dihydro-1,7-naphthyridin-7 (8H)-yl)acetamido)-2-methylpyridin-3-yl)-2-(1-methyl-1H-pyrazol-4-yl)pyrazolo[5,1-b]thiazole-7-carboxamide] | 50.4 | > 7.5 | –
6 | Cc1ncc(NC(=O)CNCC(C)C)cc1NC(=O)c1cnn2cc(-c3cnn4c3CCC4)sc12 [Example 493, 2-(5,6-dihydro-4H-pyrrolo[1,2-b]pyrazol-3-yl)-N-(5-(2-(isobutylamino)acetamido)-2-methylpyridin-3-yl)pyrazolo[5,1-b]thiazole-7-carboxamide] | 7 | > 7.5 | –
7 | Cc1ncc(NC(=O)CN2CCO[C@@H](C)C2)cc1NC(=O)c1cnn2cc(-c3cnn(C)c3)sc12 [Example 64, (S)-2-(1-methyl-1H-pyrazol-4-yl)-N-(2-methyl-5-(2-(2-methylmorpholino)acetamido)pyridin-3-yl)pyrazolo[5,1-b]thiazole-7-carboxamide] | 8.6 | > 7.5 | –
8 | Cc1ncc(NC(=O)CN2CCOCC2)cc1NC(=O)c1cnn2cc(-c3cnn(C)c3)sc12 [Example 55, 2-(1-methyl-1H-pyrazol-4-yl)-N-(2-methyl-5-(2-morpholinoacetamido)pyridin-3-yl)pyrazolo[5,1-b]thiazole-7-carboxamide] | 87.1 | > 7.5 | –
9 | Cc1ncc(NC(=O)CN2CCC[C@@H]2C)cc1NC(=O)c1cnn2cc(-c3cnn(CCO)c3)sc12 [Example 84, (S)-2-(1-(2-hydroxyethyl)-1H-pyrazol-4-yl)-N-(2-methyl-5-(2-(2-methylpyrrolidin-1-yl)acetamido)pyridin-3-yl)pyrazolo[5,1-b]thiazole-7-carboxamide] | 40.2 | > 7.5 | –
10 | COCCn1cc(-c2cn3ncc(C(=O)Nc4cc(NC(=O)CCN5CCC(C)(C)C5)cnc4C)c3s2)cn1 [Example 89, N-(5-(3-(3,3-dimethylpyrrolidin-1-yl)propanamido)-2-methylpyridin-3-yl)-2-(1-(2-methoxyethyl)-1H-pyrazol-4-yl)pyrazolo[5,1-b]thiazole-7-carboxamide] | 26.2 | > 7.5 | –
11 | Cc1ncc(NC(=O)CN2Cc3ccncc3C2)cc1NC(=O)c1cnn2cc(-c3cnn(C)c3)sc12 [Example 77, N-(5-(2-(1H-pyrrolo[3,4-c]pyridin-2 (3H)-yl)acetamido)-2-methylpyridin-3-yl)-2-(1-methyl-1H-pyrazol-4-yl)pyrazolo[5,1-b]thiazole-7-carboxamide] | 78.9 | > 7.5 | –
12 | Cc1ncc(NC(=O)CN2C[C@H](C)O[C@@H](C)C2)cc1NC(=O)c1cnn2cc(-c3cnn(C)c3)sc12 [Example 52, N-(5-(2-((2S,6S)-2,6-dimethylmorpholino)acetamido)-2-methylpyridin-3-yl)-2-(1-methyl-1H-pyrazol-4-yl)pyrazolo[5,1-b]thiazole-7-carboxamide] | 0.9 | > 7.5 | –
13 | Cc1ncc(NC(=O)CN2CCN(C)C(=O)C2)cc1NC(=O)c1cnn2cc(-c3cnn(C)c3)sc12 [Example 72, 2-(1-methyl-1H-pyrazol-4-yl)-N-(2-methyl-5-(2-(4-methyl-3-oxopiperazin-1-yl)acetamido)pyridin-3-yl)pyrazolo[5,1-b]thiazole-7-carboxamide] | > 3000 | > 7.5 | –
14 | COCCn1cc(-c2cn3ncc(C(=O)Nc4cc(NC(=O)C(C)(C)CN5CCCC5(C)C)cnc4C)c3s2)cn1 [Example 488, N-(5-(3-(2,2-dimethylpyrrolidin-1-yl)-2,2-dimethyl-propanamido)-2-methylpyridin-3-yl)-2-(1-(2-methoxyethyl)-1H-pyrazol-4-yl)pyrazolo[5,1-b]thiazole-7-carboxamide] | 375 | > 7.5 | –
15 | COCCn1cc(-c2cn3ncc(C(=O)Nc4cc(NC(=O)C[C@H]5CCN(C(C)C)C5)cnc4C)c3s2)cn1 [Example 486, (R)—N-(5-(2-(1-isopropylpyrrolidin-3-yl)acetamido)-2-methylpyridin-3-yl)-2-(1-(2-methoxyethyl)-1H-pyrazol-4-yl)pyrazolo[5,1-b]thiazole-7-carboxamide] | 2000 | > 7.5 | –
16 | Cc1ncc(C(=O)NCCN2CC3CCC2CC3)cc1NC(=O)c1cnn2cc(-c3ccnc(N4CCOCC4)c3)sc12 [Example 484, N-(5-((2-(2-azabicyclo[2.2.2]octan-2-yl)ethyl)carbamoyl)-2-methylpyridin-3-yl)-2-(2-morpholinopyridin-4-yl)pyrazolo[5,1-b]thiazole-7-carboxamide] | 44.1 | > 7.5 | –
17 | Cc1ncc(NC(=O)CN2CCOCC23CCC3)cc1NC(=O)c1cnn2cc(-c3cnn(C)c3)sc12 [Example 78, N-(5-(2-(8-oxa-5-azaspiro[3.5]nonan-5-yl)acetamido)-2-methylpyridin-3-yl)-2-(1-methyl-1H-pyrazol-4-yl)pyrazolo[5,1-b]thiazole-7-carboxamide] | 12.1 | > 7.5 | –
18 | Cc1ncc(NC(=O)CN2C[C@@H](C)O[C@@H](C)C2)cc1NC(=O)c1cnn2cc(-c3cnn(C)c3)sc12 [Example 53, N-(5-(2-((2R,6S)-2,6-dimethylmorpholino)acetamido)-2-methylpyridin-3-yl)-2-(1-methyl-1H-pyrazol-4-yl)pyrazolo[5,1-b]thiazole-7-carboxamide] | 4.3 | > 7.5 | –
19 | CC[C@H]1COCCN1CC(=O)Nc1cnc(C)c(NC(=O)c2cnn3cc(-c4cnn(C)c4)sc23)c1 [Example 70, (S)—N-(5-(2-(3-ethylmorpholino)acetamido)-2-methylpyridin-3-yl)-2-(1-methyl-1H-pyrazol-4-yl)pyrazolo[5,1-b]thiazole-7-carboxamide] | 6.4 | > 7.5 | –
20 | CC[C@@H]1COCCN1CC(=O)Nc1cnc(C)c(NC(=O)c2cnn3cc(-c4cnn(C)c4)sc23)c1 [Example 69, (R)—N-(5-(2-(3-ethylmorpholino)acetamido)-2-methylpyridin-3-yl)-2-(1-methyl-1H-pyrazol-4-yl)pyrazolo[5,1-b]thiazole-7-carboxamide] | 12.1 | > 7.5 | –
21 | Cc1ncc(NC(=O)CN2CCC(F)(F)C2)cc1NC(=O)c1cnn2cc(-c3cnn(C)c3)sc12 [Example 73, N-(5-(2-(3,3-difluoropyrrolidin-1-yl)acetamido)-2-methylpyridin-3-yl)-2-(1-methyl-1H-pyrazol-4-yl)pyrazolo[5,1-b]thiazole-7-carboxamide] | 3.2 | > 7.5 | –
22 | Cc1ncc(C(=O)NCCN2CCCC2(C)C)cc1NC(=O)c1cnn2cc(-c3ccnc(N4CCOCC4)c3)sc12 [Example 483, N-(5-((2-(2,2-dimethylpyrrolidin-1-yl)ethyl)carbamoyl)-2-methylpyridin-3-yl)-2-(2-morpholinopyridin-4-yl)pyrazolo[5,1-b]thiazole-7-carboxamide] | – | > 7.5 | 17.7
23 | Cc1ncc(NC(=O)CNC2(C)CCC2)cc1NC(=O)c1cnn2cc(-c3cnn4c3OCCC4)sc12 [Example 495, 2-(6,7-dihydro-5H-pyrazolo[5,1-b][1,3]oxazin-3-yl)-N-(2-methyl-5-(2-((1-methylcyclobutyl)amino)acetamido)pyridin-3-yl)pyrazolo[5,1-b]thiazole-7-carboxamide] | 3.8 | > 7.5 | –
24 | Cc1ncc(NC(=O)CN2CCc3ncsc3C2)cc1NC(=O)c1cnn2cc(-c3cnn(C)c3)sc12 [Example 58, N-(5-(2-(6,7-dihydrothiazolo[5,4-c]pyridin-5 (4H)-yl)acetamido)-2-methylpyridin-3-yl)-2-(1-methyl-1H-pyrazol-4-yl)pyrazolo[5,1-b]thiazole-7-carboxamide] | 52.9 | > 7.5 | –
25 | Cc1ncc(NC(=O)CN2[C@H](C)COC[C@H]2C)cc1NC(=O)c1cnn2cc(-c3cnn(C)c3)sc12 [Example 51, N-(5-(2-((3R,5R)-3,5-dimethylmorpholino)acetamido)-2-methylpyridin-3-yl)-2-(1-methyl-1H-pyrazol-4-yl)pyrazolo[5,1-b]thiazole-7-carboxamide] | 6.8 | > 7.5 | –
26 | COCCn1cc(-c2cn3ncc(C(=O)Nc4cc(NC(=O)C[C@H]5CCCN5C(C)C)cnc4C)c3s2)cn1 [Example 485, (R)—N-(5-(2-(1-isopropylpyrrolidin-2-yl)acetamido)-2-methylpyridin-3-yl)-2-(1-(2-methoxyethyl)-1H-pyrazol-4-yl)pyrazolo[5,1-b]thiazole-7-carboxamide] | 34.4 | > 7.5 | –
